Laboratory results: patent US12325697B2 (Nimbus Clio, Inc., priority 2021, dated 2025)
pEC50, pIC50: −log10 of the molar value.

Columns and labels:
[1] = target: Recombinant human Cbl-b (aa 36-427) (Homo sapiens (Human), UniProt Q13191); assay: Cbl-b Biochemical Assay (TR-FRET); details: read-out: TR-FRET hCbl-b IC50
Method in brief: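 Two-step TR-FRET: 6 nM biotinylated Cbl-b preincubated 30-60 min with compound, then 60 min at RT with 1-2.5 nM Src-Zap70 and 0.5 mM ATP in HEPES pH 7.0 buffer, 1% DMSO. Stopped with 5 mM EDTA plus 100 nM UBE2D2-Ub-FL-BODIPY and 1 nM streptavidin-Tb, 60 min; 520 nm signal; IC50 from 4-parameter fit.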

[2] = test system: Phospho-Zap70 (Y-319) in Jurkat wild-type (clone E6-1) cells; assay: Jurkat pZAP70 HTRF Assay; assay type: cell-based; details: Homo sapiens, anti-CD3 5 μg/ml, 3 hr, read-out: ZAP70 Jurkat EC50
[3] = test system: Jurkat (clone E6-1) cells, NFAT luciferase reporter; assay: Jurkat Reporter Assay (NFAT Luciferase); assay type: cell-based; details: Homo sapiens, anti-CD3 stimulation, 6 hr, read-out: Jurkat NFAT EC50

Recombinant human Cbl-b (aa 36-427), sequence (Q13191 36-427): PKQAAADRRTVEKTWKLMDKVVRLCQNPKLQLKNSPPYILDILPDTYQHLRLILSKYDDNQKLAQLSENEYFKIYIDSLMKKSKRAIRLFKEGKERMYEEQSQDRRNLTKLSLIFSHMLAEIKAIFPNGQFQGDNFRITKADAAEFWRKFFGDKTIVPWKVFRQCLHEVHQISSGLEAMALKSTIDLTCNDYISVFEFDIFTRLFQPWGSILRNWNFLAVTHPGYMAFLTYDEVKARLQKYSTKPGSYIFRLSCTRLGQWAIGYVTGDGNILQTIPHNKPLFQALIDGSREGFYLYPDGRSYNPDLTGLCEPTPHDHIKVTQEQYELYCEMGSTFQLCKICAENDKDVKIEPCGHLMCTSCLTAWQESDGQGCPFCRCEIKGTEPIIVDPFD

Work on `CCNc1cc(-c2ccc(C#N)cc2-c2nncn2C)cc(N2Cc3c(cc(CN[C@@H]4CCC[C@@H]4F)cc3C(F)(F)F)C2=O)n1` [AET-6, 4-[2-(Ethylamino)-6-[6-({[(1R,2S)-2-fluorocyclopentyl]amino}methyl)-1-oxo-4-(trifluoromethyl)-3H-isoindol-2-yl]pyridin-4-yl]-3-(4-methyl-1,2,4-triazol-3-yl) benzonitrile] yielded a pIC50 [1] of at least 6.70, a pEC50 [2] of over 6.70 and a pEC50 [3] of over 6.70.

`CCNc1cc(-c2ccc(C#N)cc2-c2nncn2C)cc(N2Cc3c(cc(OC)cc3C(F)(F)F)C2=O)n1` [AEU-8, 4-[2-(Ethylamino)-6-[6-methoxy-1-oxo-4-(trifluoromethyl)-3H-isoindol-2-yl]pyridin-4-yl]-3-(4-methyl-1,2,4-triazol-3-yl)benzonitrile] showed a pIC50 [1] of at least 6.70, a pEC50 [2] of 6.00 to 6.70 and a pEC50 [3] of over 6.70.

Work on `CCNc1cc(-c2ccc(C#N)cc2-c2nncn2C)cc(N2Cc3c(cc(COC4CC4)cc3C(F)(F)F)C2=O)n1` [AEV-3, 4-{2-[6-(Cyclopropoxymethyl)-1-oxo-4-(trifluoromethyl) -3H-isoindol-2-yl]-6-(ethylamino)pyridin-4-yl}-3-(4-methyl-1,2,4-triazol-3-yl) benzonitrile] yielded a pIC50 [1] of at least 6.70, a pEC50 [2] of 5.00 to 6.00 and a pEC50 [3] of over 6.70.

Work on `CCOc1cc(-c2ccc(C#N)cc2-c2nncn2C)cc(N2Cc3c(cc(CO)cc3C(F)(F)F)C2=O)n1` [AEW-2, 4-{2-Ethoxy-6-[6-(hydroxymethyl)-1-oxo-4-(trifluoromethyl)-3H-isoindol-2-yl]pyridin-4-yl}-3-(4-methyl-1,2,4-triazol-3-yl)benzonitrile] yielded a pIC50 [1] of at least 6.70, a pEC50 [2] of 6.00 to 6.70 and a pEC50 [3] of over 6.70.

Compound `Cn1cnnc1-c1cc(F)ccc1-c1cc(C2CC2)nc(N2Cc3c(cc(CNCC4(O)CCC4)cc3C(F)(F)F)C2=O)c1` [AEY-1, 2-{6-Cyclopropyl-4-[4-fluoro-2-(4-methyl-1,2,4-triazol-3-yl)phenyl]pyridin-2-yl}-6-({[(1-hydroxycyclobutyl)methyl]amino}methyl)-4-(trifluoromethyl)-3H-isoindol-1-one] has a pIC50 [1] of at least 6.70, a pEC50 [2] of over 6.70 and a pEC50 [3] of over 6.70.

`CCNc1cc(-c2ccc(C#N)cc2-c2nncn2C)cc(N2Cc3c(cc(COCC4(O)CCC4)cc3C(F)(F)F)C2=O)n1` [AEZ-1, 4-[2-(ethylamino)-6-(6-{[(1-hydroxycyclobutyl)methoxy]methyl}-1-oxo-4-(trifluoromethyl)-3H-isoindol-2-yl)pyridin-4-yl]-3-(4-methyl-1,2,4-triazol-3-yl) benzonitrile] was tested, and the pIC50 [1] was at least 6.70, the pEC50 [2] was 6.00 to 6.70 and the pEC50 [3] was over 6.70.

`CCNc1cc(-c2ccc(C#N)cc2-c2nncn2C)cc(N2Cc3c(cc(NC)cc3C(F)(F)F)C2=O)n1` [AFA-2, 4-[2-(ethylamino)-6-[6-(methylamino)-1-oxo-4-(trifluoromethyl)-3H-isoindol-2-yl]pyridin-4-yl]-3-(4-methyl-1,2,4-triazol-3-yl)benzonitrile] was tested, and the pIC50 [1] was at least 6.70, the pEC50 [2] was 6.00 to 6.70 and the pEC50 [3] was over 6.70.

For `CCNc1cc(-c2ccc(C#N)cc2-c2nncn2C)cc(N2Cc3c(cc(COCC(C)(C)O)cc3C(F)(F)F)C2=O)n1` [AFE-1, 4-[2-(ethylamino)-6-{6-[(2-hydroxy-2-methylpropoxy)methyl]-1-oxo-4-(trifluoromethyl)-3H-isoindol-2-yl}pyridin-4-yl]-3-(4-methyl-1,2,4-triazol-3-yl)benzonitrile], the pIC50 [1] was at least 6.70, the pEC50 [2] was 6.00 to 6.70 and the pEC50 [3] was over 6.70.

Compound `CCNc1cc(-c2ccc(F)cc2-c2nncn2C)cc(N2Cc3c(cc(COCC4(O)CCC4)cc3C(F)(F)F)C2=O)n1` [AFF-2, 2-[6-(Ethylamino)-4-[4-fluoro-2-(4-methyl-1,2,4-triazol-3-yl)phenyl]pyridin-2-yl]-6-{1[(1-hydroxycyclobutyl)methoxy]methyl}-4-(trifluoromethyl)-3H-isoindol-1-one] has a pIC50 [1] of at least 6.70, a pEC50 [2] of over 6.70 and a pEC50 [3] of over 6.70.

In the case of `CCNc1cc(-c2ccc(F)cc2-c2nncn2C)cc(N2Cc3c(cc(COCC(C)(C)O)cc3C(F)(F)F)C2=O)n1` [AFG-1, 2-[6-(Ethylamino)-4-[4-fluoro-2-(4-methyl-1,2,4-triazol-3-yl)phenyl]pyridin-2-yl]-6-[(2-hydroxy-2-methylpropoxy)methyl]-4-(trifluoromethyl)-3H-isoindol-1-one], the pIC50 [1] was at least 6.70, the pEC50 [2] was 6.00 to 6.70 and the pEC50 [3] was over 6.70.

Compound `Cn1cnnc1-c1cc(F)ccc1-c1cc(C2CC2)nc(N2Cc3ccc(CNCC4(O)CCC4)cc3C2=O)c1` [AFH-1, 2-{6-Cyclopropyl-4-[4-fluoro-2-(4-methyl-1,2,4-triazol-3-yl)phenyl]pyridin-2-yl}-6-({[(1-hydroxycyclobutyl)methyl]amino}methyl)-3H-isoindol-1-one] has a pIC50 [1] of at least 6.70, a pEC50 [2] of over 6.70 and a pEC50 [3] of over 6.70.

`Cn1cnnc1-c1cnn(C)c1-c1cc(C2CC2)nc(N2Cc3ccc(CNCC4(O)CCC4)cc3C2=O)c1` [AFI-1, 2-{6-Cyclopropyl-4-[2-methyl-4-(4-methyl-1,2,4-triazol-3-yl)pyrazol-3-yl]pyridin-2-yl}-6-({[(1-hydroxycyclobutyl)methyl]amino}methyl)-3H-isoindol-1-one] gave a pIC50 [1] of at least 6.70, a pEC50 [2] of over 6.70 and a pEC50 [3] of over 6.70.

For `Cn1cnnc1-c1cc(C#N)ccc1-c1cc(C2CC2)nc(N2Cc3ccc(CNCC4(O)CCC4)cc3C2=O)c1` [AFJ-1, 4-{2-Cyclopropyl-6-[6-({[(1-hydroxycyclobutyl)methyl]amino}methyl)-1-oxo-3H-isoindol-2-yl]pyridin-4-yl}-3-(4-methyl-1,2,4-triazol-3-yl)benzonitrile], the pIC50 [1] was at least 6.70, the pEC50 [2] was over 6.70 and the pEC50 [3] was over 6.70.

`Cn1cnnc1-c1cc(F)ccc1-c1cc(C2CC2)nc(N2Cc3c(cc(CO)cc3C(F)(F)F)C2=O)c1` [AFK-1, 2-{6-Cyclopropyl-4-[4-fluoro-2-(4-methyl-1,2,4-triazol-3-yl)phenyl]pyridin-2-yl}-6-(hydroxymethyl)-4-(trifluoromethyl)-3H-isoindol-1-one] gave a pIC50 [1] of at least 6.70, a pEC50 [2] of over 6.70 and a pEC50 [3] of over 6.70.

Work on `Cn1cnnc1-c1cc(F)ccc1-c1cc(C2CC2)nc(N2Cc3c(cc(COCC4(O)CCC4)cc3C(F)(F)F)C2=O)c1` [AFL-2, 2-{6-Cyclopropyl-4-[4-fluoro-2-(4-methyl-1,2,4-triazol-3-yl)phenyl]pyridin-2-yl}-6-{[(1-hydroxycyclobutyl)methoxy]methyl}-4-(trifluoromethyl)-3H-isoindol-1-one] yielded a pIC50 [1] of at least 6.70, a pEC50 [2] of over 6.70 and a pEC50 [3] of over 6.70.

With `Cn1cnnc1-c1cc(F)ccc1-c1cccc(N2Cc3c(cc(CNCC4(O)CCC4)cc3C(F)(F)F)C2=O)c1` [AFN-3, 2-[4′-Fluoro-2′-(4-methyl-1,2,4-triazol-3-yl)-[1,1′-biphenyl]-3-yl]-6-({[(1-hydroxycyclobutyl)methyl]amino}methyl)-4-(trifluoromethyl)-3H-isoindol-1-one] the pIC50 [1] was at least 6.70, the pEC50 [2] was over 6.70 and the pEC50 [3] was over 6.70.

Compound `Cn1cnnc1-c1cc(F)ccc1-c1cc(C2CC2)nc(N2Cc3ccc(CN[C@@H]4CCC[C@@H]4O)cc3C2=O)c1` [AFO-2, 2-{6-Cyclopropyl-4-[4-fluoro-2-(4-methyl-1,2,4-triazol-3-yl)phenyl]pyridin-2-yl}-6-({[(1R,2S)-2-hydroxycyclopentyl]amino}methyl)-3H-isoindol-1-one] has a pIC50 [1] of at least 6.70, a pEC50 [2] of over 6.70 and a pEC50 [3] of over 6.70.
